molecular target: T1, human Bradykinin B1 receptor (Homo sapiens, UniProt P46663); assay: Calcium flux Assay (FLIPR) with recombinant CHO-K1 cells expressing human Bradykinin B1 receptor, in presence (hB1 IC50) or absence (hB1 free IC50) of 0.1% BSA; type: cell-based; conditions: in absence of 0.1% BSA, read-out: hB1 free IC50
T1 construct: host or cells: CHO-K1
T1 sequence (P46663 1-353): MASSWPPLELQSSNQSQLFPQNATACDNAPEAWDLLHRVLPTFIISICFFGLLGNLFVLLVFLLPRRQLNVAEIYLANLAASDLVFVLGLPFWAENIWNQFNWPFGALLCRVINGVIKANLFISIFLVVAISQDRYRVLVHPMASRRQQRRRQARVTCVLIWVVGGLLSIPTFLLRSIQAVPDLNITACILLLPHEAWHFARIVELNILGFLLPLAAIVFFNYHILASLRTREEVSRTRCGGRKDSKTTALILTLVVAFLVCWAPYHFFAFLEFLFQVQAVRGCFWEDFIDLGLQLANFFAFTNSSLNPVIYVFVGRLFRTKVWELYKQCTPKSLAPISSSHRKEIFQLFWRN

Question: For Cc1ccc(C2(C(=O)Nc3ccc(-n4cnc(C(F)(F)F)c4)c(-c4nnn[nH]4)c3)CC2)c(F)c1 [Example 367, 1-(2-Fluoro-4-methylphenyl)-N-{3-(1H-tetrazol-5-yl)-4-[4-(trifluoromethyl)-1H-imidazol-1-yl]phenyl}cyclopro-panecarboxa-mide], which IC50 is on record?
Answer: The IC50 was 61.2 nM.

Question: COc1ccc(-c2cc(F)c(NC(=O)C3(c4ccc(Cl)cc4)CC3)cc2-c2nnn[nH]2)cc1OC [Example 264, 1-(4-Chlorophenyl)-N-[5-fluoro-3′,4′-dimethoxy-2-(1H-tetrazol-5-yl)biphenyl-4-yl]cyclopropane carboxamide] was tested. Which IC50 did it give?
Answer: Its IC50 is 2330 nM.

Question: Which IC50 does the source give for Cc1ccc(C2(C(=O)Nc3ccc(-c4ccc(C(F)(F)F)nc4)c(-c4nnn[nH]4)c3F)CC2)c(F)c1 [Example 299, 1-(2-fluoro-4-methylphenyl)-N-{2-fluoro-3-(1H-tetrazol-5-yl)-4-[6-(trifluoromethyl)pyridin-3-yl]phenyl}cyclopro-panecarboxa-mide] here?
Answer: The IC50 was 241 nM.

Question: With Cc1ccc(C2(C(=O)Nc3ccc(-n4cc(Cl)cn4)c(-c4nnn[nH]4)c3)CC2)c(F)c1 [Example 393, N-[4-(4-chloro-1H-pyrazol-1-yl)-3-(1H-tetrazol-5-yl)phenyl]-1-(2-fluoro-4-methylphenyl)cy-clopropanecar-boxamide] as the compound, how does the IC50 read?
Answer: The IC50 was 187 nM.

Question: Which IC50 does the source give for Cc1cc(-c2c(F)cc(NC(=O)C3(c4cccc(Cl)c4)CC3)cc2-c2nnn[nH]2)ccn1 [Example 246, 1-(3-chlorophenyl)-N-[3-fluoro-4-(2-methylpyridin-4-yl)-5-(1H-tetrazol-5-yl)phenyl] cyclopropane carboxamide] here?
Answer: The IC50 was 16 nM.

Question: Which IC50 does the source give for O=C(Nc1ccc(-n2cnc(C(F)(F)F)c2)c(-c2nnn[nH]2)c1)C1(c2ccc(OC(F)(F)F)cc2F)CC1 [Example 362, 1-[2-Fluoro-4-(trifluoromethoxy)phenyl]-N-{3-(1H-tetrazol-5-yl)-4-[4-(trifluoromethyl)-1H-imidazol-1-yl]phenyl}cyclopro-panecarboxa-mide] here?
Answer: Its IC50 is 26.4 nM.

Question: COc1ccc(-c2ccc(NC(=O)C3(c4cccc(Cl)c4)CC3)cc2-c2nnn[nH]2)cc1C(F)(F)F [Example 132, 1-(3-chlorophenyl)-N-[4′-methoxy-2-(1H-tetrazol-5-yl)-3′-(trifluoromethyl)biphenyl-4-yl]cyclopropane carboxamide] was tested. Which IC50 did it give?
Answer: The IC50 was 234 nM.

Question: How did the IC50 turn out when O=C(Nc1ccc(-c2ccc(Cl)nc2)c(-c2nnn[nH]2)c1)C1(c2cccc(Cl)c2)CC1 [Example 341, 1-(3-chlorophenyl)-N-[4-(6-chloropyridin-3-yl)-3-(1H-tetrazol-5-yl)phenyl]cyclopro-panecarboxa-mide] was run?
Answer: Its IC50 is 87.3 nM.

Question: With CCc1cnn(-c2ccc(NC(=O)C3(c4ccc(C)cc4F)CC3)cc2-c2nnn[nH]2)c1 [Example 375, N-[4-(4-Ethyl-1H-pyrazol-1-yl)-3-(1H-tetrazol-5-yl)phenyl]-1-(2-fluoro-4-methylphenyl)cy-clopropanecar-boxamide] as the compound, how does the IC50 read?
Answer: Its IC50 is 60.6 nM.

Question: How did the IC50 turn out when CCc1cnn(-c2ccc(NC(=O)C3(c4cccc(Cl)c4)CC3)cc2-c2nnn[nH]2)c1 [Example 378, 1-(3-Chlorophenyl)-N-[4-(4-ethyl-1H-pyrazol-1-yl)-3-(1H-tetrazol-5-yl)phenyl]cyclopro-panecarboxa-mide] was run?
Answer: The IC50 was 343 nM.

Question: With O=C(Nc1ccc(-c2ccc(C(F)F)nc2)c(-c2nnn[nH]2)c1)C1(c2ccc(C(F)(F)F)cc2)CC1 [Example 270, N-{4-[6-(difluoromethyl)pyridin-3-yl]-3-(1H-tetrazol-5-yl)phenyl}-1-[4-(trifluoromethyl)phenyl]cyclopro-panecarboxamide] as the compound, how does the IC50 read?
Answer: The IC50 was 17.4 nM.

Question: With O=C(Nc1ccc(-n2cnc(C(F)(F)F)n2)c(-c2nnn[nH]2)c1)C1(c2ccc(F)c(F)c2)CC1 [Example 358, 1-(3,4-difluorophenyl)-N-{3-(1H-tetrazol-5-yl)-4-[3-(trifluoromethyl)-1H-1,2,4-triazol-1-yl]phenyl}cyclopro-panecarboxa-mide] as the compound, how does the IC50 read?
Answer: Its IC50 is 2970 nM.

Question: Which IC50 does the source give for CCOc1ccc(-c2ccc(NC(=O)C3(c4ccc(OC(F)(F)F)cc4)CC3)cc2-c2nnn[nH]2)cn1 [Example 74, N-[4-(6-ethoxypyridin-3-yl)-3-(1H-tetrazol-5-yl)phenyl]-1-[4-(trifluoromethoxy)phenyl] cyclopropane-carboxamide] here?
Answer: Its IC50 is 7.76 nM.

Question: O=C(Nc1ccc(-n2ccc(C(F)(F)F)n2)c(-c2nnn[nH]2)c1)C1(c2ccc(C(F)(F)F)cc2F)CC1 [Example 348, 1-[2-Fluoro-4-(trifluoromethyl)phenyl]-N-{3-(1H-tetrazol-5-yl)-4-[3-(trifluoromethyl)-1H-pyrazol-1-yl]phenyl}cyclopro-panecarboxa-mide] was tested. Which IC50 did it give?
Answer: Its IC50 is 122 nM.

Question: For O=C(Nc1ccc(-c2ccc(C(F)(F)F)nc2)c(-c2nnn[nH]2)c1)C1(c2ccc(F)cc2F)CC1 [Example 142, 1-(2,4-difluorophenyl)-N-{3-(1H-tetrazol-5-yl)-4-[6-(trifluoromethyl)pyridin-3-yl]phenyl} cyclopropane-carboxamide], which IC50 is on record?
Answer: The IC50 was 201 nM.

Question: How did the IC50 turn out when CCC1CCN(c2ccc(NC(=O)C3(c4ccc(OC(F)(F)F)cc4F)CC3)cc2-c2nnn[nH]2)C1=O (stereo not drawn) [Example 409, N-[4-(3-ethyl-2-oxopyrrolidin-1-yl)-3-(1H-tetrazol-5-yl)phenyl]-1-[2-fluoro-4-(trifluoromethoxy)phenyl]cyclo-propanecarboxa-mide] was run?
Answer: Its IC50 is 54.7 nM.

Question: CS(=O)(=O)Nc1ccc(-c2ccc(NC(=O)C3(c4cccc(Cl)c4)CC3)cc2-c2nnn[nH]2)cc1 [Example 331, 1-(3-chloropehnyl)-N-{4′-[(methylsulfonyl)amino]-2-(1H-tetrazol-5-yl)biphenyl-4-yl}cyclopropane carboxamide] was tested. Which IC50 did it give?
Answer: The IC50 was 162 nM.

Question: How did the IC50 turn out when O=C(Nc1ccc(-c2ccnc(C(F)(F)F)c2)c(-c2nnn[nH]2)c1)C1(c2ccc(F)cn2)CC1 [Example 174, 1-(5-fluoropyridin-2-yl)-N-{3-(1H-tetrazol-5-yl)-4-[2-(trifluoromethyl)pyridin-4-yl]phenyl} cyclopropane-carboxamide] was run?
Answer: Its IC50 is 1110 nM.

Question: COc1ccc(-c2ccc(NC(=O)C3(c4cccc(C(F)(F)F)c4)CC3)cc2-c2nnn[nH]2)cc1OC [Example 38, N-[3′,4′-dimethoxy-2-(1H-tetrazol-5-yl)biphenyl-4-yl]-1-[3-(trifluoromethyl)phenyl] cyclopropane-carboxamide] was tested. Which IC50 did it give?
Answer: The IC50 was 13.7 nM.

Question: Which IC50 does the source give for O=C(Nc1ccc(-c2ccnc(C(F)(F)F)c2)c(-c2nnn[nH]2)c1)C1(c2cc(F)ccc2F)CC1 [Example 179] here?
Answer: The IC50 was 393 nM.

same assay, conditions: in presence of 0.1% BSA, read-out: hB1 IC50

Question: For CCOc1ccc(-c2ccc(NC(=O)C3(c4cc(OC)ccc4F)CC3)cc2-c2nnn[nH]2)cn1 [Example 104, N-[4-(6-ethoxypyridin-3-yl)-3-(1H-tetrazol-5-yl)phenyl]-1-(2-fluoro-5-methoxyphenyl) cyclopropane-carboxamide], which IC50 is on record?
Answer: The IC50 was 46.4 nM.

Question: With COc1ccc(-c2cc(F)c(NC(=O)C3(c4ccc(Cl)cc4)CC3)cc2-c2nnn[nH]2)cc1OC [Example 264, 1-(4-Chlorophenyl)-N-[5-fluoro-3′,4′-dimethoxy-2-(1H-tetrazol-5-yl)biphenyl-4-yl]cyclopropane carboxamide] as the compound, how does the IC50 read?
Answer: Its IC50 is 834 nM.

Question: COc1ccc(-c2ccc(NC(=O)C3(c4ccccc4OC(F)(F)F)CC3)cc2-c2nnn[nH]2)cc1OC [Example 4, N-[3′,4′-dimethoxy-2-(1H-tetrazol-5-yl)biphenyl-4-yl]-1-[2-(trifluoro-methoxy)phenyl] cyclopropane-carboxamide] was tested. Which IC50 did it give?
Answer: The IC50 was 158 nM.

Question: Which IC50 does the source give for COc1ccc(-c2ccc(NC(=O)C3(c4ccc(F)cc4Cl)CC3)cc2-c2nnn[nH]2)cc1OC [Example 28, 1-(2-chloro-4-fluorophenyl)-N-[3′,4′-dimethoxy-2-(1H-tetrazol-5-yl)biphenyl-4-yl]cyclopropane carboxamide] here?
Answer: Its IC50 is 138 nM.

Question: With COc1ccc(-c2ccc(NC(=O)C3(C(F)(F)F)CC3)cc2-c2nnn[nH]2)cc1OC [Example 34, N-[3′,4′-dimethoxy-2-(1H-tetrazol-5-yl)biphenyl-4-yl]-1-(trifluoromethyl) cyclopropane-carboxamide] as the compound, how does the IC50 read?
Answer: The IC50 was 603 nM.

Question: Which IC50 does the source give for O=C(Nc1ccc(-c2ccc(Cl)nc2)c(-c2nnn[nH]2)c1)C1(c2cccc(Cl)c2)CC1 [Example 341, 1-(3-chlorophenyl)-N-[4-(6-chloropyridin-3-yl)-3-(1H-tetrazol-5-yl)phenyl]cyclopro-panecarboxa-mide] here?
Answer: The IC50 was 115 nM.

Question: CCOc1cncc(-c2ccc(NC(=O)C3(c4cccc(C(F)(F)F)c4)CC3)cc2-c2nnn[nH]2)c1 [Example 155, N-[4-(5-ethoxypyridin-3-yl)-3-(1H-tetrazol-5-yl)phenyl]-1-[3-(trifluoromethyl)phenyl] cyclopropane-carboxamide] was tested. Which IC50 did it give?
Answer: Its IC50 is 220 nM.

Question: With CCOc1ccc(-c2ccc(NC(=O)C3(c4ccc(OC(F)(F)F)cc4)CC3)cc2-c2nnn[nH]2)cn1 [Example 74, N-[4-(6-ethoxypyridin-3-yl)-3-(1H-tetrazol-5-yl)phenyl]-1-[4-(trifluoromethoxy)phenyl] cyclopropane-carboxamide] as the compound, how does the IC50 read?
Answer: Its IC50 is 18.7 nM.

Question: Which IC50 does the source give for O=C(Nc1cc(-c2nnn[nH]2)c(-c2ccc(C(F)(F)F)nc2)cc1O)C1(c2ccc(Cl)cc2)CC1 [Example 226, 1-(4-chlorophenyl)-N-{2-hydroxy-5-(1H-tetrazol-5-yl)-4-[6-(trifluoromethyl)pyridin-3-yl]phenyl} cyclopropane-carboxamide] here?
Answer: Its IC50 is 105 nM.

Question: How did the IC50 turn out when N#Cc1cc(-c2ccc(NC(=O)C3(c4cccc(Cl)c4)CC3)cc2-c2nnn[nH]2)ccc1Cl [Example 325, N-[4′-chloro-3′-cyano-2-(1H-tetrazol-5-yl)biphenyl-4-yl]-1-(3-chlorophenyl)cy-clopropanecarbox-amide] was run?
Answer: Its IC50 is 1740 nM.

Question: How did the IC50 turn out when CS(=O)(=O)Nc1ccc(-c2ccc(NC(=O)C3(c4cccc(Cl)c4)CC3)cc2-c2nnn[nH]2)cc1 [Example 331, 1-(3-chloropehnyl)-N-{4′-[(methylsulfonyl)amino]-2-(1H-tetrazol-5-yl)biphenyl-4-yl}cyclopropane carboxamide] was run?
Answer: Its IC50 is 206 nM.

Question: For COc1ccc(-c2ccc(NC(=O)C3(c4cccc(C(F)(F)F)c4)CC3)cc2-c2nnn[nH]2)cc1OC [Example 38, N-[3′,4′-dimethoxy-2-(1H-tetrazol-5-yl)biphenyl-4-yl]-1-[3-(trifluoromethyl)phenyl] cyclopropane-carboxamide], which IC50 is on record?
Answer: Its IC50 is 38.8 nM.

Question: For COc1ccc(-c2ccc(NC(=O)C3(c4cccc(Cl)n4)CC3)cc2-c2nnn[nH]2)cc1OC [Example 50, 1-(6-chloropyridin-2-yl)-N-[3′,4′-dimethoxy-2-(1H-tetrazol-5-yl)biphenyl-4-yl]cyclopropane carboxamide], which IC50 is on record?
Answer: Its IC50 is 310 nM.
